Here are results for eleven compounds from ChEMBL document CHEMBL1201862, “PubChem BioAssay data set” (2004).

Test systems include SK-MEL-28; Hs-578T; IGROV-1; NCI-H23; 786-0; HOP-62; MDA-N; CCRF-CEM; K562; SNB-75; SK-OV-3; CAKI-1; SF-539; NCI-H522; Malme-3M; M14; DU-145; ACHN; OVCAR-5.
Holding throughout (experiment): NCI-60 cell line screen, 48 h

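Assay format: 96-well plates, 48-hour exposure. GI50 is the concentration that inhibits growth by half.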 Calls of active or inactive are those of the source. Cut-off read from the data, not from the text of the source: active = GI50 up to about 1.1 µM and inactive = higher. A value given as a limit tells only on which side of the number the result lay.

For `CC1=NC(=Cc2ccc([N+](=O)[O-])cc2)C(=O)N1n1c(-c2ccccc2)nc2ccccc2c1=O`, the GI50 is 57.9 µM (inactive) in the assay with SK-MEL-28; 50.2 µM (inactive) in the assay with Hs-578T; 53.6 µM (inactive) with IGROV-1; 21.8 µM (inactive) with NCI-H23; 83 µM (inactive) in the assay on 786-0; 60.1 µM (inactive) in the assay on HOP-62. Also, the GI50 with MDA-N was 49 µM (inactive); with CCRF-CEM it was 32.8 µM (inactive); with K562, 40.6 µM (inactive); in the assay with SNB-75, 15.7 µM (inactive); in the assay with SK-OV-3 it was 68.9 µM (inactive); with CAKI-1, 35.2 µM (inactive). For the same compound, the GI50 in the assay with SF-539 is 67.3 µM (inactive); in the assay with NCI-H522, 32.1 µM (inactive); in the assay on Malme-3M it was 53.7 µM (inactive); in the assay on M14, 46.7 µM (inactive); in the assay with DU-145 it was 51.8 µM (inactive).

Consider `COc1cc(/C=C/C(=O)N[C@@H]2C(=O)N3[C@@H]2SC(C)(C)[C@@H]3C(=O)O)cc(OC)c1OC`, for which the GI50 with SK-MEL-28, in the assay on ACHN, with Hs-578T, in the assay with NCI-H23, in the assay on 786-0 and in the assay with MDA-N was > 100 µM (inactive) throughout. Moreover, the GI50 with CCRF-CEM, with OVCAR-5, with K562, with SNB-75, in the assay on SK-OV-3 and with CAKI-1 was > 100 µM (inactive) in each case. For the same compound, the GI50 with SF-539, with NCI-H522, in the assay on M14 and in the assay on DU-145 was > 100 µM (inactive) throughout.

Regarding `c1ccc2c(c1)[nH]c1nc3cc(-c4ccc5nc6c(nc5c4)[nH]c4ccccc46)ccc3nc12`, the GI50 is > 100 µM (inactive) with SK-MEL-28; > 52.8 µM (inactive) with ACHN; > 100 µM (inactive) in the assay on Hs-578T; > 100 µM (inactive) with IGROV-1; > 59 µM (inactive) in the assay with NCI-H23; > 100 µM (inactive) in the assay with 786-0. Also, the GI50 is > 93.5 µM (inactive) with HOP-62; > 100 µM (inactive) in the assay on MDA-N; 12.9 µM (inactive) with CCRF-CEM; > 100 µM (inactive) with OVCAR-5; > 100 µM (inactive) in the assay with SNB-75; > 100 µM (inactive) in the assay with SK-OV-3. Besides, the GI50 is > 100 µM (inactive) in the assay on CAKI-1; 5.42 µM (inactive) with NCI-H522; > 100 µM (inactive) in the assay with Malme-3M; > 100 µM (inactive) in the assay on M14; > 100 µM (inactive) with DU-145.

As for `CC1CC(C#N)=C2NCCN2C1=O` (stereo not given), the GI50 in the assay with SK-MEL-28, in the assay on Hs-578T, in the assay on IGROV-1, with NCI-H23, in the assay with 786-0 and in the assay on HOP-62 was > 100 µM (inactive) in each case. The GI50 in the assay with MDA-N is 16.4 µM (inactive); in the assay on CCRF-CEM, > 100 µM (inactive); with K562 it was > 100 µM (inactive); in the assay with SNB-75, > 100 µM (inactive); in the assay on SK-OV-3, > 100 µM (inactive); in the assay on CAKI-1, 51.9 µM (inactive). The GI50 is > 100 µM (inactive) in the assay with SF-539; 95.1 µM (inactive) in the assay with NCI-H522; 94 µM (inactive) in the assay on Malme-3M; 19.4 µM (inactive) with M14; > 100 µM (inactive) with DU-145.

As for `COC(=O)C12OC(C)(C(CC(=O)OC(C)(C)C)C1=O)C1C(=O)N(c3ccccc3)C(=O)C12` (stereo not given), the GI50 with SK-MEL-28, in the assay with ACHN, in the assay with Hs-578T, with IGROV-1, in the assay on NCI-H23 and with 786-0 was > 100 µM (inactive) throughout. Moreover, the GI50 in the assay on HOP-62, in the assay with MDA-N, with CCRF-CEM, in the assay with OVCAR-5, with K562 and in the assay on SNB-75 was > 100 µM (inactive) each time. Moreover, the GI50 in the assay on SK-OV-3, in the assay on CAKI-1, with NCI-H522, in the assay with Malme-3M, in the assay with M14 and with DU-145 was > 100 µM (inactive) in each case.

`Nc1nc(S)c2c(N)n[nH]c2c1C(=O)Nc1ccccc1`: the GI50 with SK-MEL-28 was > 100 µM (inactive); with Hs-578T it was > 100 µM (inactive); with IGROV-1 it was > 100 µM (inactive); in the assay on NCI-H23, > 100 µM (inactive); in the assay with 786-0, > 100 µM (inactive); in the assay on MDA-N, 50.2 µM (inactive). For the same compound, the GI50 with OVCAR-5, with K562, in the assay with SNB-75, in the assay on SK-OV-3, in the assay with CAKI-1 and with SF-539 was > 100 µM (inactive) in each case. Further, the GI50 with NCI-H522, in the assay on Malme-3M, in the assay on M14 and in the assay on DU-145 was > 100 µM (inactive) each time.

`O=C1CN(c2ccc(Cl)cc2)C(=O)CN1NCNN1CC(=O)N(c2ccc(Cl)cc2)CC1=O`: the GI50 in the assay with SK-MEL-28, in the assay on ACHN, with Hs-578T, with IGROV-1, in the assay with NCI-H23 and in the assay on 786-0 was > 100 µM (inactive) throughout. The GI50 in the assay on HOP-62, in the assay on MDA-N, in the assay with CCRF-CEM, with OVCAR-5, with SNB-75 and in the assay on SK-OV-3 was > 100 µM (inactive) in each case. Further, the GI50 with CAKI-1, in the assay on SF-539, with NCI-H522, in the assay with Malme-3M, with M14 and with DU-145 was > 100 µM (inactive) each time.

`O=C(CN1CCCCC1)CC(O)(C(F)(F)F)C(F)(F)F`: the GI50 with SK-MEL-28 is > 100 µM (inactive); in the assay with ACHN, > 100 µM (inactive); with Hs-578T it was 95.9 µM (inactive); with IGROV-1 it was > 100 µM (inactive); in the assay with NCI-H23, > 100 µM (inactive); in the assay on 786-0 it was > 100 µM (inactive). Moreover, the GI50 is > 100 µM (inactive) in the assay on MDA-N; > 100 µM (inactive) in the assay with CCRF-CEM; > 100 µM (inactive) in the assay on OVCAR-5; > 100 µM (inactive) in the assay on K562; 20.5 µM (inactive) in the assay with SNB-75; > 100 µM (inactive) in the assay with SK-OV-3. Moreover, the GI50 in the assay on CAKI-1, with SF-539, in the assay on NCI-H522, with Malme-3M, in the assay on M14 and with DU-145 was > 100 µM (inactive) throughout.

Regarding `COC(C)(C)C1=CCC(C)CC1` (stereo not given), the GI50 in the assay on SK-MEL-28, in the assay on ACHN, with Hs-578T, in the assay on IGROV-1, with NCI-H23 and in the assay on 786-0 was > 100 µM (inactive) each time. The GI50 is > 100 µM (inactive) in the assay on HOP-62; > 100 µM (inactive) with MDA-N; > 100 µM (inactive) in the assay with OVCAR-5; 66.1 µM (inactive) in the assay on SNB-75; > 100 µM (inactive) in the assay with SK-OV-3; > 100 µM (inactive) in the assay with CAKI-1. In addition, the GI50 in the assay with SF-539, with NCI-H522, in the assay on Malme-3M, with M14 and in the assay on DU-145 was > 100 µM (inactive) each time.

As for `N#Cc1c(-c2ccccc2)cc(Nc2ccc(F)cc2)n2c1nc1ccccc12`, the GI50 with SK-MEL-28 was 8.32 µM (inactive); with ACHN it was 2.7 µM (inactive); in the assay with Hs-578T, < 0.01 µM (active); in the assay with IGROV-1, 4.12 µM (inactive); in the assay with NCI-H23, 3.18 µM (inactive); in the assay on 786-0 it was 2.78 µM (inactive). For the same compound, the GI50 in the assay with HOP-62 is 2.83 µM (inactive); in the assay on MDA-N, 2.28 µM (inactive); with OVCAR-5, 3.16 µM (inactive); with K562, 5.61 µM (inactive); with SNB-75 it was 1.72 µM (inactive); with SK-OV-3 it was 2.43 µM (inactive). The GI50 in the assay on CAKI-1 was 3.2 µM (inactive); in the assay on SF-539 it was 3.26 µM (inactive); with NCI-H522 it was 1.95 µM (inactive); in the assay on Malme-3M, 3.66 µM (inactive); in the assay with M14, 3.35 µM (inactive); with DU-145, 2.94 µM (inactive).

With `CCC1(CC)C(=O)N(C(=O)c2ccc(C)cc2)N(C(=O)c2ccc(C)cc2)C1=O`, the GI50 is > 75 µM (inactive) in the assay with SK-MEL-28; 26.8 µM (inactive) with ACHN; > 75 µM (inactive) in the assay with Hs-578T; 48.9 µM (inactive) in the assay with IGROV-1; 27.2 µM (inactive) with NCI-H23; > 75 µM (inactive) with 786-0. Besides, the GI50 in the assay on HOP-62 is 65.6 µM (inactive); with MDA-N it was 63.2 µM (inactive); in the assay on CCRF-CEM, 33.1 µM (inactive); with OVCAR-5, > 75 µM (inactive); with K562, 40 µM (inactive); in the assay with SNB-75, 14.4 µM (inactive). Further, the GI50 in the assay on SK-OV-3 is > 75 µM (inactive); in the assay on CAKI-1 it was 52 µM (inactive); in the assay with NCI-H522, 16.8 µM (inactive); with Malme-3M, 14.4 µM (inactive); in the assay with M14, > 75 µM (inactive); with DU-145, > 75 µM (inactive).
